Data: patent publication EP0373658A2, “Use of quinoline derivatives in treating cancer” (priority 1988, dated 1990)

How the values were obtained:
[1] = 52 week toxicology studies in rats; assay type: in vivo; conditions: oral doses, 0.20 mg/kg/day
operable breast cancer = assay: Clinical trial II: antiproliferative effect in operable breast cancer; assay type: in vivo, women; conditions: oral, 20 days, 50 to 200 ug/day/p.o.; compound A 25 µg/day days 0 to 3, 50 µg/day days 4 to 6, 75 µg/day until day 20
Excerpt: 24 to 36 women with operable breast cancer, aged less than 70 years, in whom a positive biopsy cut has been obtained at the first clinic visit are selected. The patients are not be taking any chronic medication which is known to influence serum prolactin levels. The trial is effected on a randomized double blind basis. All patients are to have baseline evaluations before beginning treatment.
The women are given an oral dose of a COMPOUND OF THE INVEN-TION or placebo for 20 days, starting on day 0. They are operated on day 10 with either breast conservation or modified radical mastectomy. Prolactin levels in plasma are measured on days 0, 6, 10, 13 and 20. Histological evaluations are performed on days 1 and 10.

serum prolactin = assay: lowering basal serum prolactin levels in the male rat (prolactin secretion inhibition); assay type: in vivo
Excerpt: Many of the above mentioned compounds are published as prolactin secretion inhibitors, some of which are extremely potent and have long lasting activity. The potency of the compounds as prolactin secretion inhibitors can be determined in standard tests, e.g. by lowering basal serum prolactin levels in the male rat.

[2] = test system: 5-HT sensitive adenylate cyclase of the liver fluke; assay: activation of 5-HT sensitive adenylate cyclase of the liver fluke (method of R. Markstein); assay type: biochemical; conditions: adenylate cyclase stimulated by serotonin
Excerpt: A group of compounds comprises compounds which are D₂ agonists without any antagonistic activity. Another group of compounds includes those compounds which are serotonin agonists, e.g. as indicated in standard in vitro binding tests and by activation of 5-HT sensitive adenylate cyclase of the liver fluke according to the method of R.Markstein, Neurochemical Effects of Some Ergot Derivatives: A Basis for their Antiparkinson Actions. J. Neural transm 51:39, (1981).
Examples of such compounds include compound C and pergolide. Compound C, pergolide and 5-HT agonists have efficacies of 90, 80, and 100 respectively and pD₂ [10g EC₅₀] of 6.9, 6.9 and 7.7 respectively in this test on adenylate cyclase stimulated by serotonin.

Row | Structure (SMILES) | toxic effects [1] | mitotic rate (operable breast cancer) | ID₅₀ mg/kg after 4 hours (serum prolactin) [mg/kg] | efficacies [2] | pD₂ [10g EC₅₀] [2]
1 | CCCN1CC(NS(=O)(=O)N(CC)CC)CC2Cc3c(O)cccc3CC21 (stereo not drawn) [Compound A, N,N-diethyl-N′-[(3α,4aα,10aβ)-1,2,3,4,4a,5,10,10a-octahydro-6-hydroxy-1-propyl-3-benzo[g]-quinolinyl] sulfamide] | no toxic effects are observed | satisfactory results indicative of a reduced mitotic rate | 0.03 | – | –
2 | CCCN1C[C@H](CSC)C[C@@H]2c3cccc4[nH]cc(c34)C[C@H]21 [pergolide, 6-n-propyl-8α-methylmercaptomethyl-ergoline-I, reference compound] | – | – | – | 80 | 6.9
3 | CN1C[C@@H](NS(=O)(=O)N(C)C)C[C@@H]2c3cccc4c3c(cn4C)C[C@H]21 [B, 1,6-dimethyl-8α-(N,N-dimethylsulphamoylamino)-ergoline-I] | – | – | 0.003 | – | –
4 | CCCN1C[C@@H](NS(=O)(=O)N(CC)CC)C[C@@H]2c3cccc4[nH]cc(c34)C[C@H]21 [Compound C, 6-n-propyl-8α-(N,N-diethylsulphamoylamino)-ergoline-I] | – | – | 0.001 | 90 | 6.9
